Test results reported in patent US10370360B2, “Small-molecule inhibitors targeting discoidin domain receptor 1 and uses thereof” (priority 2014, dated 2019).
Like-named read-outs stand apart in the source and are kept apart here.

How the values were obtained:
human PDA cell lines [1] = experiment: liquid colony forming assay; format: cell-based; details: concentration-dependent, 1.5-2 weeks
[2] = rats; Gao et al., 2013; cited from earlier work
orthotopic AsPC-1 tumors = experiment: survival study, orthotopic AsPC-1 xenograft in NOD-SCID mice; format: in vivo, mouse
KPC mice (PDA) = experiment: survival study, KPC genetically engineered mouse model of PDA; format: in vivo
human PDA cell lines [3] = details: concentration-dependent, 30 hour
Bcr-Abl [4] = experiment: FRET-based Z'-Lyte kinase assay, Abl; format: biochemical; details: 10 μM ATP; cells printed in μM
Bcr-Abl, sequence (P00519 whole entry): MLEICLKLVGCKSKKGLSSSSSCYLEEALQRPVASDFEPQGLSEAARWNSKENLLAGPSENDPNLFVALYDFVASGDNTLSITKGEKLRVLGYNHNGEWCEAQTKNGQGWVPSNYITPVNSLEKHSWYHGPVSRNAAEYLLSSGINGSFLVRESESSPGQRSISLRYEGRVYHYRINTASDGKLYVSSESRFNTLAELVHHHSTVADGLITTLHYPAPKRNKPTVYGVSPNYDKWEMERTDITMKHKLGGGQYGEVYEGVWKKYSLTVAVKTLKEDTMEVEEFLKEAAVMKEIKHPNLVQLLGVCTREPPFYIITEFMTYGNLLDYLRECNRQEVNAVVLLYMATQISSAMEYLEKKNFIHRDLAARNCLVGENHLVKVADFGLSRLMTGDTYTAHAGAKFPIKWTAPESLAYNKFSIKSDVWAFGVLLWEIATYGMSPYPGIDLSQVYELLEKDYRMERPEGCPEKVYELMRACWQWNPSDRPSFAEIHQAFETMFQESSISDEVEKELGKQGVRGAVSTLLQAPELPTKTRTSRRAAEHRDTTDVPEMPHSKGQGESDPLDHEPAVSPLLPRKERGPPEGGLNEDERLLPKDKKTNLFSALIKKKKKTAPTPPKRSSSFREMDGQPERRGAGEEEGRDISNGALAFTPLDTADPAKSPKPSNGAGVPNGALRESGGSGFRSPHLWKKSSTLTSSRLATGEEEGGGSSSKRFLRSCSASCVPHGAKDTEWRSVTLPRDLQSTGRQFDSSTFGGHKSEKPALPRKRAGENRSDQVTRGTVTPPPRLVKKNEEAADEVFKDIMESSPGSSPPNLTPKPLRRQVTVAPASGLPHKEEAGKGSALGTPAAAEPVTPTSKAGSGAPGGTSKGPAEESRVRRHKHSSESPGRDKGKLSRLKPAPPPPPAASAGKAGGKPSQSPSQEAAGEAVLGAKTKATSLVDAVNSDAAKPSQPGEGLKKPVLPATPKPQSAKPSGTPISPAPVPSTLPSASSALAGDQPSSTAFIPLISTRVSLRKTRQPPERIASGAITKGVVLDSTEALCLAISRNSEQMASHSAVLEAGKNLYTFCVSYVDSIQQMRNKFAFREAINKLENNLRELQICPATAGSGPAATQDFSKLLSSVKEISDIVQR

c-Kit = c-Kit (Homo sapiens (Human), UniProt P10721); experiment: FRET-based Z'-Lyte kinase assay, c-kit; format: biochemical; details: 300 μM ATP
c-Kit, sequence (P10721 26-976): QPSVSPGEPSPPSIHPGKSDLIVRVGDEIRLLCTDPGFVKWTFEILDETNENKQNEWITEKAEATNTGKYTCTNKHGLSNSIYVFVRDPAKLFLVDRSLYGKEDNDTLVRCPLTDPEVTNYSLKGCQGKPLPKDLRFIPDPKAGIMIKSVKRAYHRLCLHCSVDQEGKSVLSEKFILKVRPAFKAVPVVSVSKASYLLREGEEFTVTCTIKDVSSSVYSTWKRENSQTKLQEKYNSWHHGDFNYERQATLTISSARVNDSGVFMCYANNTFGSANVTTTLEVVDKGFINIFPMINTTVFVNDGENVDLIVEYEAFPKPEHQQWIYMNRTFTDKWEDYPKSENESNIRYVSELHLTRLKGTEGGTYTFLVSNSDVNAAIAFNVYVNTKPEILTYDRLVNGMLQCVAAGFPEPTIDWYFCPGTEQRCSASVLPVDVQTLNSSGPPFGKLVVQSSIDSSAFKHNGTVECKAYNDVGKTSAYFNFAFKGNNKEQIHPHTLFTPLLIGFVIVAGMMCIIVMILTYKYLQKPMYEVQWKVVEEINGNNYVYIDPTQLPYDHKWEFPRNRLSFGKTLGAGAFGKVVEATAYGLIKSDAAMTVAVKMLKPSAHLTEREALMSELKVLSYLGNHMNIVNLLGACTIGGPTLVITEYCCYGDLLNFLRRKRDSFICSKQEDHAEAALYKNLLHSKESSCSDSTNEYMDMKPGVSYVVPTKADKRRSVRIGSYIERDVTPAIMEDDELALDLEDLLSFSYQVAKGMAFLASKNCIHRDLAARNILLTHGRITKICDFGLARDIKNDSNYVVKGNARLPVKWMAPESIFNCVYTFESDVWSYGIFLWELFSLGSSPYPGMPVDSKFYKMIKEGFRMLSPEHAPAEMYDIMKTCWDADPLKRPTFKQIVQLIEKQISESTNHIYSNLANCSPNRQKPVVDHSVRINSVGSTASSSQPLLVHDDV

DDR1 = DDR1 (Homo sapiens (Human), UniProt Q08345); experiment: LanthaScreen Eu kinase activity assay, DDR1; format: biochemical; details: 100 nM ATP
DDR1, sequence (Q08345 19-913): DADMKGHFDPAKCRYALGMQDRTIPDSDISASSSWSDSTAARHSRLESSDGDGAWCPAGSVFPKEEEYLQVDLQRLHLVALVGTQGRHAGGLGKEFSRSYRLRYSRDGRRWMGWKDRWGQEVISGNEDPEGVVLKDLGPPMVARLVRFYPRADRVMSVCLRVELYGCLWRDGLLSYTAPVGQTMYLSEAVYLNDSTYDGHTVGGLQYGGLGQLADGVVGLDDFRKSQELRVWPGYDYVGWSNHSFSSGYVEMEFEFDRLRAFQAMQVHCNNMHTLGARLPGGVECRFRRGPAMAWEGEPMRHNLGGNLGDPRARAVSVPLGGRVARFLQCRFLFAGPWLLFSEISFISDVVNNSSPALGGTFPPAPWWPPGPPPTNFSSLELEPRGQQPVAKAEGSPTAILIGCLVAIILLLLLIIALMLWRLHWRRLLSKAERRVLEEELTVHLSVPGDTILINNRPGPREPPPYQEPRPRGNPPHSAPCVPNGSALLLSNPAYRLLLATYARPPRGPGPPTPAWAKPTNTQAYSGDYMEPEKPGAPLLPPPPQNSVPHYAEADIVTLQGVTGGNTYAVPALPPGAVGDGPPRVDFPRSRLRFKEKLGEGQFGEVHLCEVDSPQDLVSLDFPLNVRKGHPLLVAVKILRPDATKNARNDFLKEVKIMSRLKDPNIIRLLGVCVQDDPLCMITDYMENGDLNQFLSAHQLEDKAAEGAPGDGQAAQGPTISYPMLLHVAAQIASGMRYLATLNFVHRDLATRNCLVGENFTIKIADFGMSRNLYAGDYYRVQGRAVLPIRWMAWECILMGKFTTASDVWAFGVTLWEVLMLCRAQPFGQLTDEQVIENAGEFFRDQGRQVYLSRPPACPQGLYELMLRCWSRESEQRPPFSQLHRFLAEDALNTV

DDR2 = DDR2 (Homo sapiens (Human), UniProt Q16832); experiment: LanthaScreen Eu kinase activity assay, DDR2; format: biochemical; details: 100 nM ATP
DDR2, sequence (Q16832 22-855): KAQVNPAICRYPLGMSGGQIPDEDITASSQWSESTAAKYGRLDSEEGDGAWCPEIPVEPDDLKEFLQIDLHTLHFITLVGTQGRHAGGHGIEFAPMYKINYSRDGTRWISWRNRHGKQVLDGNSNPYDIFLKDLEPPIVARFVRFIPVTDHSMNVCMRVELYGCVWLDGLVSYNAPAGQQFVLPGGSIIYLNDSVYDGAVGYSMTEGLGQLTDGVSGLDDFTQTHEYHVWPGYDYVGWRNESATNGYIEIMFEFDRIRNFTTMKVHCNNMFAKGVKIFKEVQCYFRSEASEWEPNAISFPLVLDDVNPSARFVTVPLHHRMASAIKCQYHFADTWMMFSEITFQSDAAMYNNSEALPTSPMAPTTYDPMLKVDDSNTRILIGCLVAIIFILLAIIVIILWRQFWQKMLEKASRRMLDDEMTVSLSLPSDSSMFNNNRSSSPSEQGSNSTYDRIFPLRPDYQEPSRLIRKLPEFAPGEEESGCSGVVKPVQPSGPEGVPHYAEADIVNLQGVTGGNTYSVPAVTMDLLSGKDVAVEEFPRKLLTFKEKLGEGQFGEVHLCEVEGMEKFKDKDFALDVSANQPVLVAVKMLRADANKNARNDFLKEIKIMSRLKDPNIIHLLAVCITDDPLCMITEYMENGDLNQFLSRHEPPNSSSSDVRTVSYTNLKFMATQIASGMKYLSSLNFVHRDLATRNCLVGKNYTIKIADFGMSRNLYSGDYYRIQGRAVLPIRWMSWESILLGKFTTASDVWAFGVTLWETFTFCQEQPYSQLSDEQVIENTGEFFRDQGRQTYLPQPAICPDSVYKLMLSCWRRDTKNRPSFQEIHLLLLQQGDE

Bcr-Abl [5] = biological target: Bcr-Abl (Homo sapiens, UniProt P00519); experiment: FRET-based Z'-Lyte kinase assay, Abl; format: biochemical; details: 10 μM ATP; cells printed in μM
Bcr-Abl (Homo sapiens, UniProt P00519), sequence (P00519 whole entry): as the sequence (P00519 whole entry) above

PANC-1 cells = experiment: MTS viability assay, PANC-1; format: cell-based; details: Homo sapiens
AsPC-1 cells = experiment: MTS viability assay, AsPC-1; format: cell-based; details: Homo sapiens

SMILES | IC50 (Bcr-Abl [4]) | IC50 (c-Kit) | IC50 (DDR1) | IC50 (DDR2; cells without unit) | IC50 (DDR2; cells printed in μM) | other results
CCc1ccc(C(=O)Nc2cc(CN3CCN(C)CC3)cc(C(F)(F)F)c2)cc1C#Cc1cnc2ccnn2c1 [Example 7rh, 3-(2-(Pyrazolo[1,5-a]pyrimidin-6-yl)-ethynyl) 7rh benzamide] |  |  |  |  |  | colony formation (human PDA cell lines [1]): reduced; in vivo half-life [2]: ~12 h; primary tumor growth compared to vehicle (orthotopic AsPC-1 tumors; orthotopic AsPC-1, tumor weight vs survival days): reduced; median overall survival (orthotopic AsPC-1 tumors; orthotopic AsPC-1, therapy from day 27 post tumor cell injection, 7rh 25 mg/kg 3×/week oral): 57 days; median of survival (KPC mice (PDA); KPC mice enrolled at 4 months of age, 7rh 25 mg/kg 3×/week oral): 159 days; primary tumor growth compared to vehicle (KPC mice (PDA); KPC mice, tumor weight vs survival days): reduced; cell migration (human PDA cell lines [3]): reduced
CC1CN(c2cncnc2)Cc2cc(C(=O)Nc3cc(CN4CCN(C)CC4)cc(C4CCCCC4)c3)ccc21 (stereo not shown) [Example 22, N-(3-cyclohexyl-5-((4-methylpiperazin-1-yl)methyl)phenyl)-4-methyl-2-(pyrimidin-5-yl)-1,2,3,4-tetrahydroisoquinoline-7-carboxamide] | > 10 µM | > 10000 nM | 71.6 nM | 0.457 µM |  | 
Cc1cn(-c2cc(NC(=O)c3ccc4c(c3)CN(c3cncnc3)CC4C)cc(C(F)(F)F)c2)cn1 (stereo not shown) [Example 26, 4-methyl-N-(3-(4-methyl-1H-imidazol-1-yl)-5-(trifluoromethyl)phenyl)-2-(pyrimidin-5-yl)-1,2,3,4-tetrahydroisoquinoline-7-carboxamide] |  | > 10000 nM |  |  |  | IC50 (Bcr-Abl [5]): 7.2 µM
CC1Cc2ccc(C(=O)Nc3cc(CN4CCN(C)CC4)cc(C(F)(F)F)c3)cc2CN1c1cncnc1 (stereo not shown) [Example 30, 3-methyl-N-(3-((4-methylpiperazin-1-yl)methyl)-5-(trifluoromethyl)phenyl)-2-(pyrimidin-5-yl)-1,2,3,4-tetrahydroisoquinoline-7-carboxamide] | > 10 µM | > 10000 nM | 544 nM |  | 7.6 µM | 
CC1CN(c2cncnc2)Cc2cc(C(=O)Nc3cc(CN4CCN(C5CCCCC5)CC4)cc(C(F)(F)F)c3)ccc21 (stereo not shown) [Example 33, N-(3-((4-cyclohexylpiperazin-1-yl)methyl)-5-(trifluoromethyl)phenyl)-4-methyl-2-(pyrimidin-5-yl)-1,2,3,4-tetrahydroisoquinoline-7-carboxamide] | > 10 µM | > 10000 nM | 79.9 nM | 0.945 µM |  | 
CC1CN(c2cncnc2)Cc2cc(C(=O)Nc3cc(CN4CCSCC4)cc(C(F)(F)F)c3)ccc21 (stereo not shown) [Example 35, 4-methyl-2-(pyrimidin-5-yl)-N-(3-(thiomorpholinomethyl)-5-(trifluoromethyl)phenyl)-1,2,3,4-tetrahydroisoquinoline-7-carboxamide] | > 10 µM | > 10000 nM | 209 nM |  | 3.7 µM | 
Nc1ccn([C@@H]2O[C@H](CO)[C@@H](O)C2(F)F)c(=O)n1 [Gemcitabine, gemcitabine] |  |  |  |  |  | IC50 (PANC-1 cells; PANC-1, PANC-1, collagen coating, single agent, read-out: Gemcitabine (nM) Avg IC50s Collagen): 2000 nM; IC50 (PANC-1 cells; PANC-1, PANC-1, plastic coating, single agent, read-out: Gemcitabine (nM) Avg IC50s Plastic): > 2000 nM; IC50 (PANC-1 cells; PANC-1, read-out: 500 nM 7rh + Gem Avg IC50s Plastic, PANC-1, plastic, fixed 500 nM 7rh with gemcitabine titration): ≤ 2 nM; IC50 (AsPC-1 cells; ASPC1, AsPC-1, collagen coating, single agent, read-out: Gemcitabine (nM) Avg IC50s Collagen): 2000 nM; IC50 (AsPC-1 cells; ASPC1, AsPC-1, plastic coating, single agent, read-out: Gemcitabine (nM) Avg IC50s Plastic): > 2000 nM; IC50 (AsPC-1 cells; ASPC1, read-out: 500 nM 7rh + Gem Avg IC50s Plastic, AsPC-1, plastic, fixed 500 nM 7rh with gemcitabine titration): ≤ 2 nM

Continued, in another order:

IC50 (Bcr-Abl [4]) | IC50 (c-Kit) | IC50 (DDR1) | IC50 (DDR2; cells without unit) | IC50 (DDR2; cells printed in μM) | SMILES | other results
7.2 µM | > 10000 nM | 35.7 nM | 0.647 µM |  | CC(C)c1cc(CN2CCN(C)CC2)cc(NC(=O)c2ccc3c(c2)CN(c2cncnc2)CC3C)c1 (stereo not shown) [Example 16, N-(3-isopropyl-5-((4-methylpiperazin-1-yl)methyl)phenyl)-4-methyl-2-(pyrimidin-5-yl)-1,2,3,4-tetrahydroisoquinoline-7-carboxamide] | 
> 10 µM | > 10000 nM | 39.1 nM | 0.527 µM |  | CCN1CCN(Cc2cc(NC(=O)c3ccc4c(c3)CN(c3cncnc3)CC4C)cc(C(F)(F)F)c2)CC1 (stereo not shown) [Example 17, N-(3-((4-ethylpiperazin-1-yl)methyl)-5-(trifluoromethyl)phenyl)-4-methyl-2-(pyrimidin-5-yl)-1,2,3,4-tetrahydroisoquinoline-7-carboxamide] | 
> 10 µM | > 10000 nM | 193 nM |  | 4.5 µM | CC1CN(c2cncnc2)Cc2cc(C(=O)Nc3cc(CN4CCOCC4)cc(C(F)(F)F)c3)ccc21 (stereo not shown) [Example 18, 4-methyl-N-(3-(morpholinomethyl)-5-(trifluoromethyl)phenyl)-2-(pyrimidin-5-yl)-1,2,3,4-tetrahydroisoquinoline-7-carboxamide] | 
> 10 µM | > 10000 nM | 166 nM |  | 2.2 µM | CC1CN(c2cncnc2)Cc2cc(C(=O)Nc3cc(CN4CCCCC4)cc(C(F)(F)F)c3)ccc21 (stereo not shown) [Example 19, 4-methyl-N-(3-(piperidin-1-ylmethyl)-5-(trifluoromethyl)phenyl)-2-(pyrimidin-5-yl)-1,2,3,4-tetrahydroisoquinoline-7-carboxamide] | 
> 10 µM | > 10000 nM | 222 nM |  | 2.3 µM | CC1CN(c2cncnc2)Cc2cc(C(=O)Nc3cc(CN4CCCC4)cc(C(F)(F)F)c3)ccc21 (stereo not shown) [Example 20, 4-methyl-2-(pyrimidin-5-yl)-N-(3-(pyrrolidin-1-ylmethyl)-5-(trifluoromethyl)phenyl)-1,2,3,4-tetrahydroisoquinoline-7-carboxamide] | 
> 10 µM | > 10000 nM | 254 nM |  | 6.7 µM | CC1CN(c2cncnc2)Cc2cc(C(=O)Nc3cc(CN(C)C)cc(C(F)(F)F)c3)ccc21 (stereo not shown) [Example 21, N-(3-((dimethylamino)methyl)-5-(trifluoromethyl)phenyl)-4-methyl-2-(pyrimidin-5-yl)-1,2,3,4-tetrahydroisoquinoline-7-carboxamide] | 
